Data taken from publication PMC7002685, “Inhibition of vascular calcification by inositol phosphates derivatized with ethylene glycol oligomers” (Nature Communications, 2020).
Where two headings read alike, the source gives them in different places.

What was measured:
[1] = PK s.c. in rats with vitamin D and warfarin-induced VC; assay type: in vivo; details: Sprague-Dawley, rat, plasma, sc, 50 mg/kg, 50 mg/kg s.c., Cardiovascular calcification model
Method: Moreover, the systemic exposure of the compound after s.c. administration was assessed in rats with VC (Fig. 4f, Supplementary Table 3).
To study PK in rats presenting with VC, plasma samples were used from a sub-group of the study where calcification was induced with vitamin D and warfarin treatment.
The bioanalytical method for (OEG2)2-IP4 in rat plasma was further optimized, qualified, and applied to the comparative PK study in adenine and high-phosphate diet-induced VC vs. vitamin D-induced VC animals. The LC-MS/MS analyses were carried out using a Dionex Ultimate RSLC ultra-high-pressure liquid chromatography (UHPLC) system (Thermo Fisher Scientific) coupled with a TSQ Quantiva^TM triple quadrupole mass spectrometer. The samples were stored at 5 °C in the autosampler prior to and during the analyses. […] Gradient elution (solvent A, 20 mM ammonium acetate in water (pH 5); solvent B, ACN) was used according to the program reported in Supplementary Table 18. The injection volume was 10 µL. MS/MS parameters (MRM acquisition, cycle time 0.2 s) for (OEG2)2-IP4 are reported in Supplementary Table 19 and the ESI source, working in negative ionization mode, applied the following parameters: static spray voltage 3000 V ion transfer tube and vaporizer temperatures at 400 and 100 °C, respectively; sheath and auxiliary gas (nitrogen) flow rates at 80 and 3 (arbitrary units). For the quantitative determination in rat plasma, product ion m/z 158.9 was selected because it provided the best sensitivity and selectivity. Calibration curve and quality control samples were prepared by adding 2 μL of working solution to 38 μL rat blank K3EDTA plasma (Biochemed, Winchester, VA) and precipitating plasma protein by addition of 120 μL of MeOH including internal standard OEG11-IP5. Samples were vortexed 1 min and centrifuged at (22,000 × g, 4 °C, 10 min). Supernatants (90 μL) were then transferred into a glass vial with insert and injected onto LC-MS/MS system. Both in adenine and high-phosphate diet-induced VC and vitamin D-induced VC rat PK samples were prepared for analysis in an analogous manner as done for spiked samples (assay volume 40 μL). The LLOQ and LOD in rat plasma for (OEG2)2-IP4 were 50 and 10 ng/mL, respectively. The ULOQ and detection was 50,000 ng/mL.

[2] = Compound stress test in D2O at 37 °C (NMR); assay type: physicochemical; details: up to 6 weeks
Method: For the compound stress test, 20.25 mg (OEG2)2-IP4 in 700 µL D2O was incubated at 37 °C and stability was monitored by ^1H-NMR and ^31P-NMR spectroscopies for up to 6 weeks.
Monitoring the stability of (OEG2)2-IP4 in aqueous solution at 37 °C for up to 6 weeks by 1H-
Monitoring the stability of (OEG2)2-IP4 in aqueous solution at 37 °C for up to 6 weeks by 31P- […]

[3] = system: Calcium Channel L-Type, Benzothiazepine; experiment: Off-target 214510; assay type: binding, Rat; details: 10 µM
Method: (§1) The potential off-target activity of 10 µM (OEG2)2-IP4 was assessed against a panel of 87 enzymes, receptors, or ion channels that are used in standard safety pharmacology screens.
(§2) 3.2. Off-target screening assay
(§3) The experiments were conducted by a contract research organization (Eurofins Panlabs Discovery Services Taiwan, Ltd.) and details on the respective assays can be retrieved via the catalog number provided in Supplementary Table 11 from the company’s webpage
(§4) (https://www.eurofinsdiscoveryservices.com/). […]
(§5) At sacrifice the left tibia of animals of the rat model with dietary adenine/high-phosphate-induced uremia and VC was collected, fixed with 70% v/v EtOH and embedded in methyl methacrylate. The trabecular bone compartment is known to be the most metabolic active i.e. actively re-structured bone compartment in CKD. Therefore, histomorphometric and micro-computed tomography (µCT) analysis of bone was performed on the trabecular compartment. Tibial sections were Goldner-stained for histomorphometric analysis of the proximal metaphysis using the AxioVision Release 4.5 software, as […]
(§6) described previously5. […]

Chemokine CCR1 = target: T1, Chemokine CCR1 (Homo sapiens, UniProt P32246); experiment: Off-target 217510; assay type: binding
T1 construct: purchased Eurofins Panlabs Discovery Services Taiwan, Ltd
T1 sequence (P32246 whole entry): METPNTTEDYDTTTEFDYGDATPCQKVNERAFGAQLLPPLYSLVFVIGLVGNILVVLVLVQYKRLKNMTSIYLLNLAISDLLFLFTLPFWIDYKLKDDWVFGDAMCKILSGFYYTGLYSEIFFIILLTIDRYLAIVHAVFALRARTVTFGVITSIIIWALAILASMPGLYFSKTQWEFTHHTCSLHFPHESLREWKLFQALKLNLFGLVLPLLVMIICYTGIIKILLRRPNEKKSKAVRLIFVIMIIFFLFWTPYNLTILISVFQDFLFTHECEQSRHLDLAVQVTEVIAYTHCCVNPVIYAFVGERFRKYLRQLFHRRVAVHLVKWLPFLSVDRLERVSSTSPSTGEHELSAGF
Method: as §1, §2
(§7) The experiments were conducted by a contract research organization (Eurofins Panlabs Discovery
(§8) Services Taiwan, Ltd.) and details on the respective assays can be retrieved via the catalog number
(§9) provided in Supplementary Table 11 from the company’s webpage
as §4

Muscarinic M4 = target: T2, Muscarinic M4 (Homo sapiens, UniProt P08173); experiment: Off-target 252910; assay type: binding
T2 construct: purchased Eurofins Panlabs Discovery Services Taiwan, Ltd
T2 sequence (P08173 whole entry): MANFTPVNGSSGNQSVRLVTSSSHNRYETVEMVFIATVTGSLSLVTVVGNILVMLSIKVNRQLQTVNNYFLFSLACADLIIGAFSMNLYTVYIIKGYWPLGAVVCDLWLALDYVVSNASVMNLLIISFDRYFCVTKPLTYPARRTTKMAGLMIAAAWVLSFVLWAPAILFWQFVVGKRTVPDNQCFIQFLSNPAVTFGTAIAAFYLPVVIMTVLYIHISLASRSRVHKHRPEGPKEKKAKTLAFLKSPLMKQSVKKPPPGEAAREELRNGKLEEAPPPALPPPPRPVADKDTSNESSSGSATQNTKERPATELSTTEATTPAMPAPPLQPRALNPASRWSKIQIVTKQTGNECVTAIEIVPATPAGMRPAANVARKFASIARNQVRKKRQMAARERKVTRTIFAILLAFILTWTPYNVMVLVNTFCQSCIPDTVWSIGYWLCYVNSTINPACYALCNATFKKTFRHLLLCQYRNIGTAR
Method: as §1, §2, §7, §8, §9, §4

[4] = target: T3, Serotonin (5-Hydroxytryptamine) 5-HT3 (Homo sapiens, UniProt P46098); experiment: Off-target 271910; assay type: binding
T3 construct: purchased Eurofins Panlabs Discovery Services Taiwan, Ltd
T3 sequence (P46098 24-478): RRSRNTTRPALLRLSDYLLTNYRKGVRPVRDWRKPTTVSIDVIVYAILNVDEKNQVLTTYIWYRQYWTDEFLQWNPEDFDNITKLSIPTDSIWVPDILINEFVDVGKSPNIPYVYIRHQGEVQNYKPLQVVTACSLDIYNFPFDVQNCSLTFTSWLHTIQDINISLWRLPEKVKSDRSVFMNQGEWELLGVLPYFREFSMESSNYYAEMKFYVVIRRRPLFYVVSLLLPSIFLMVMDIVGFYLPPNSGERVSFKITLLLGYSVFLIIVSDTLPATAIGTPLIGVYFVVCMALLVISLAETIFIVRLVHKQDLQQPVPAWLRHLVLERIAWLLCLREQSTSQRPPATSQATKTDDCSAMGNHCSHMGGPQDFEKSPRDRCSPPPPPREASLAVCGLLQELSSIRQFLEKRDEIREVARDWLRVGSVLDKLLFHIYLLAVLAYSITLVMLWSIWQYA
Method: as §1, §2, §7, §8, §9, §4

Transporter, GABA = target: T4, Transporter, GABA (Rattus norvegicus, UniProt P23978); experiment: Off-target 226400; assay type: binding
T4 construct: purchased Eurofins Panlabs Discovery Services Taiwan, Ltd
Method: as §1, §2, §3, §4, §5, §6

[5] = PK s.c. in rats with vitamin D and warfarin-induced VC; assay type: in vivo; details: Sprague-Dawley, rat, plasma, sc, 50 mg/kg, 50 mg/kg s.c.
[6] = Precipitation in culture medium (naked eye, microscope); assay type: physicochemical; details: 100 µM, VSMC and macrophage assays
Method: Macrophage accumulation and inflammation coincide with the initial phase of calcification. To this end, VSMCs and THP-1-derived macrophages were exposed to CPP2-supplemented medium. CPP2 prepared from human serum as described previously[61] (Supplementary Figs. 6 and 7), induced a pronounced VSMC monolayer calcification after 48 h, which was decreased by (OEG2)2-IP4 in a dose-dependent fashion, and the effect became significant at 10 µM (Fig. 3e). […] Both H2O2 (proxy for oxidative stress) and tumor necrosis factor-alpha (TNF-α) (proxy for inflammatory response) levels were assayed in the VSMC culture supernatants subsequent to CPP2 treatment with and without compounds[30]. However, no increase in H2O2 nor TNF-α compared to control could be detected in either assay. For the CPP-induced VSMC calcification assay (Fig. 3e) a roughly 10-fold higher concentration of (OEG2)2-IP4 was necessary to achieve similar activity as in the CaP-induced VSMC calcification assay (Fig. 3b). […]
Occurrence of precipitation in the different treatment groups was assessed visually by the naked eye and by a microscope (CTR6000, Leica Camera AG) at ×25 magnification at 0 and 24 h (performed once in duplicate).

| Compound | AUC(0-inf) [1] [µM·h] | CL/F [1] [mL/min/kg] | Cmax [1] [µM] | half-life [1] [min] | AUC(0-t) ([1]; read-out: AUC0-1440 (converted)) [µM·h] | MRT last ([1]; read-out: MRT0-1440 (converted)) [h] | stability in aqueous solution by 1H- and 31P-NMR [2] | % Inhibition [3] [%] | inhibition at 10 µM (Chemokine CCR1) [%] | inhibition at 10 µM (Muscarinic M4) [%] | inhibition at 10 µM [4] [%] | inhibition at 10 µM (Transporter, GABA) [%] | AUC(0-inf) ([5]; Healthy) [µM·h] | CL/F ([5]; Healthy) [mL/min/kg] | Cmax ([5]; Healthy) [µM] | half-life ([5]; Healthy (before induction of calcification)) [min] | AUC(0-t) ([5]; Healthy, read-out: AUC0-1440 (converted)) [µM·h] | MRT last ([5]; Healthy, read-out: MRT0-1440 (converted)) [h] | precipitation in culture medium [6] |
| --- | --- | --- | --- | --- | --- | --- | --- | --- | --- | --- | --- | --- | --- | --- | --- | --- | --- | --- | --- |
| COCCOCCO[C@@H]1[C@@H](OP(=O)(O)O)[C@H](OCCOCCOC)[C@@H](OP(=O)(O)O)[C@@H](OP(=O)(O)O)[C@H]1OP(=O)(O)O [(OEG2)2-IP4, 4,6-Di-O-(methoxy-diethyleneglycol)-myo-inositol-1,2,3,5-tetrakis(phosphate)] | 152 | 7 ± 2 | 34 ± 8 | 224 ± 44 | 151 | 3.5 | No compound degradation was evident | -7 | -2 | 1 | 8 | 4 | 101 | 11 ± 1 | 49 ± 7 | 235 ± 16 | 101 | 2.27 | – |
| O=P(O)(O)O[C@H]1[C@H](OP(=O)(O)O)[C@@H](OP(=O)(O)O)[C@H](OP(=O)(O)O)[C@@H](OP(=O)(O)O)[C@H]1OP(=O)(O)O [IP6, myo-Inositol hexakisphosphate] | – | – | – | – | – | – | – | – | – | – | – | – | – | – | – | – | – | – | precipitation in culture medium occurred |
